{
  "source": "patent US12030876B2",
  "about": "“Aryl hydrocarbon receptor (AHR) agonists and uses thereof” (Ikena Oncology, Inc., priority 2019, dated 2024)",
  "key": {"[1]": {"tested_on": "DSS model of Inflammatory Bowel Disease (IBD)", "assay_type": "in vivo, C57Bl/6 mice", "details": "DSS model", "description": "On study day −1, C57Bl/6 mice are weighed and randomized into treatment groups based on body weight. On study day 0, treatment groups are given 2.5% DSS in drinking water and treatment is initiated on the same day, with either vehicle or AHR agonist compound(s). On study day 7, DSS drinking water is replaced with normal drinking water for the remainder of the study. Body weight is measured daily during the entire study. On study day 10, animals are anesthetized with Isoflurane and bled to exsanguination followed by cervical dislocation. The entire colon is removed and measured for length, weight, and weight per length. Overall efficacy of test AR agonist compounds is based on body weight, colon length, and colon histopathology. Histopathology data is assessed for appropriate parameters, as determined by a pathologist and the parameters for these DSS studies can include inflammation, erosion, gland loss, edema, hyperplasia, neutrophil count, mucosal thickening, lymphoid aggregate count and lymphoid aggregate size. The different parameter scores can be added for a summed score for the study histopathology."}, "[2]": {"tested_on": "T-cell transfer IBD model", "assay_type": "in vivo, SCID mice", "description": "On study day 0, donor Balb/C mice are terminated, and spleens obtained for CD4+CD45RB^high cell isolation (Using a SCID IBD Cell Separation Protocol). After cells have been sorted and obtained, each recipient SCID animal receives an IP injection of, at a minimum, 4×10^5 cells (200 μl/mouse injections). Also on study day 0, SCID mice are weighed and randomized into treatment groups based on body weight. On study day 14, AHR agonist compound treatments are initiated and dosed orally daily; the control group receiving anti-IL12 (0.5 mg/mouse) is dosed IP once a week. On study day 49, animals are anesthetized with Isoflurane and bled to exsanguination followed by cervical dislocation. The entire colon is removed, measured, and weighed. Overall efficacy of AHR agonist compounds are based on a ratio of colon weight to length, and colon histopathology and colon cytokines (Th17 panel)."}, "[3]": {"tested_on": "DSS model of Inflammatory Bowel Disease (IBD)", "set-up": "species or system C57Bl/6 mice", "details": "mouse"}, "[4]": {"tested_on": "Cyp1a1 gene expression", "set-up": "species or system C57BL/6N mice", "details": "mouse, in vivo", "description": "C57BL/6N mice are weighed and randomized into treatment groups with group size of 3-5 mice. On study Day 1, treatment is initiated and necropsies follow on day 1 at 4 and 12 hours post-dose and on Day 2, 24 hours post-dose. On Day 1, mice are dosed orally with one dose of the AHR agonist compound(s) that are in a suspension and mixed well before dosing. At the designated time, animals are euthanized and plasma and tissue taken for compound levels (PK) and compound effect (PD) on gene expression. Liver samples and proximal colon are weighed and then frozen for subsequent RNA extraction and RT-PCR analysis. AHR activation is determined by measuring Cyp1a1 gene expression relative to a housekeeping gene, such as GAPDH or HPRT. Cyp1a1 expression levels in the liver are compared to Cyp1a1 levels in the colon to determine a colon:liver ratio to determine the level of GI preferred AHR activation."}, "[5]": {"tested_on": "naive CD62L+ human T-Cells", "assay": "Th17 assay", "assay_type": "cell-based", "details": "FIG. 16", "description": "On Day 1, naive CD62L+ human T-Cells were plated in a 96 well plate (25,000 cells in 200 uL media). Cells were activated with human CD3/CD28 tetramer (12.5 μL/1×10^6 cells) and differentiated with human Th17 cytokines (50 ng/mL IL-6, 20 ng/mL IL-1 beta, 10 ng/mL IL-23, 1 ng/mL TGF-beta, 12 μg/mL anti-human IFN-γ antibody and 10 μg/mL anti-human TL-4 antibody) for 10 days. Media containing cytokine cocktail and CD3/CD28 was refreshed every 2-3 days. On Day 10, cell supernatant was collected and frozen for cytokine analysis. Cells were stimulated with 1× Cell Stimulation Cocktail (PMA and Ionomycin) for 5 hours. After 5 hours of stimulation, cells were stained for intracellular cytokines (human CD4, IL-17A, IL-22). Samples were run on BD LSR FORTESSA and analyzed in FLOWJO software."}, "[6]": {"tested_on": "human regulatory T cells (Tregs)", "assay": "Treg assay (human)", "assay_type": "cell-based", "details": "compound present during induction of Tregs, in vitro; FIG. 15", "description": "On day 0, naïve T cells from cryopreserved human derived PBMCs were isolated. These cells were plated in 48 well plate at 500,000 cells/mL concentration with human CD3/CD28 activation tetramer (12.5 μL/1×10^6 cells) and differentiated into regulatory T cells (Tregs) with 1 ng/mL […] and 5 ng/mL human recombinant TL-2 in the presence of DMSO or different concentrations of AHR agonist compounds.\nOn day 5, the Tregs were counted and washed. CD25− Effector T cells (Teffs) were isolated from the same human donor and were labeled with Cell Trace Violet. The Tregs and Teffs were cocultured for 4 days in 96 well plate at 1:2 or 1:1 ratio with human CD3/CD28 tetramer (12.5 μL/1×10^6 cells).\nAt the end of a 4 day co-culture, the cells were washed and stained with LiveDead stain. They were run on flow cytometer and analyzed using FLOWJO software."}, "[7]": {"tested_on": "human Crohn's and ulcerative colitis tissue cultures"}, "[8]": {"details": "T-cell transfer IBD model, FIG. 9"}},
  "data": [
    {"smiles": "FC(F)(F)c1cccc(Nc2nc(-c3cccc(Cl)c3)cs2)c1", "note": "[Compound P-2]", "values": [
      {"measurement": "inflammation and erosion (histopathology)", "setting": "[1]; relative to vehicle control, FIG. 6, FIG. 19", "result": "minimal inflammation and mild erosion"},
      {"measurement": "colon length", "setting": "[1]; FIG. 5", "result": "increased colon length"},
      {"measurement": "content score", "setting": "[1]; FIG. 5", "result": "improved content score"},
      {"measurement": "cytokine activity: IFN-γ, IL-1β, and MIP-3α/CCL20", "setting": "[2]; T-cell transfer IBD model, colon cytokines, FIG. 11", "result": "significant reduction"},
      {"measurement": "cytokine activity: GM-CSF and IL-6", "setting": "[2]; T-cell transfer IBD model, colon cytokines, FIG. 12", "result": "significant reduction"},
      {"measurement": "cytokine activity: IL-17/IL-25 and TNF-α", "setting": "[2]; T-cell transfer IBD model, colon cytokines, FIG. 13", "result": "reduction"},
      {"measurement": "body weight", "setting": "[2]; [8]", "result": "increased body weight"},
      {"measurement": "colon weight", "setting": "[2]; [8]", "result": "decreased colon weight"},
      {"measurement": "reduction in colon weight compared to vehicle", "setting": "[2]; [8]", "result": 54, "unit": "%"},
      {"measurement": "reduction in colon weight per length compared to vehicle", "setting": "[2]; [8]", "result": 54, "unit": "%"},
      {"measurement": "inflammation", "setting": "[2]; T-cell transfer IBD model, FIG. 10", "result": "significant reduction"},
      {"measurement": "in vivo AHR activation by expression of Cyp1a1 in the colon", "setting": "[2]; mouse, in vivo", "result": "confirmed"},
      {"measurement": "in vivo AHR activation by expression of Cyp1a1 in the colon", "setting": "[3]", "result": "confirmed"}
    ]},
    {"smiles": "Nc1cccc(-c2csc(Nc3cccc(C(F)(F)F)c3)n2)c1", "note": "[I-10]", "values": [
      {"measurement": "Cyp1a1 induction in the colon", "setting": "[4]", "result": "comparable"},
      {"measurement": "IL-17A+ human T-cells", "setting": "[5]; Th17 polarizing conditions", "result": "decreases"},
      {"measurement": "IL-22+ human T-cells", "setting": "[5]; Th17 polarizing conditions", "result": "increases"},
      {"measurement": "human Th17 cell differentiation", "setting": "[5]; in vitro", "result": "modulates"},
      {"measurement": "suppressive functions of human Tregs", "setting": "[6]", "result": "increases suppressive functions"},
      {"measurement": "cytokine release: IFN-γ, IL-17A, IL-1β, and TNF-α", "setting": "[7]", "result": "decreases"}
    ]}
  ]
}
